Experimental data as given in ChEMBL document CHEMBL1201862, “PubChem BioAssay data set” (2004).
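96-well plates; 48 h exposure; 5 concentrations. Endpoints by linear interpolation between flanking doses. Not reached: highest tested concentration assigned. Here, GI50 denotes the concentration required for 50% inhibition of growth.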 Active and inactive are the calls of the source. No stated cut-off is given here; in the data, active = GI50 up to about 1.1 µM and inactive = higher.

Assays:
Experiment in all cases: NCI tumour cell line growth inhibition, 48 h
786-0 = test system: 786-0
A498 = test system: A498
A549 = test system: A549
ACHN = test system: ACHN
CAKI-1 = test system: CAKI-1
CCRF-CEM = test system: CCRF-CEM
COLO 205 = test system: COLO 205
DLD-1 = test system: DLD-1
DMS-114 = test system: DMS-114
DMS-273 = test system: DMS-273
EKVX = test system: EKVX
HCC 2998 = test system: HCC 2998
HCT-116 = test system: HCT-116
HCT-15 = test system: HCT-15
HL-60 = test system: HL-60
HOP-18 = test system: HOP-18
HOP-62 = test system: HOP-62
HOP-92 = test system: HOP-92
HT-29 = test system: HT-29
IGROV-1 = test system: IGROV-1
K562 = test system: K562
KM-20L2 = test system: KM-20L2
KM12 = test system: KM12
LXFL 529 = test system: LXFL 529
M14 = test system: M14
M19-MEL = test system: M19-MEL
MOLT-4 = test system: MOLT-4
Malme-3M = test system: Malme-3M
NCI-H226 = test system: NCI-H226
NCI-H23 = test system: NCI-H23
NCI-H460 = test system: NCI-H460
NCI-H522 = test system: NCI-H522
OVCAR-3 = test system: OVCAR-3
OVCAR-4 = test system: OVCAR-4
OVCAR-5 = test system: OVCAR-5
OVCAR-8 = test system: OVCAR-8
RPMI-8226 = test system: RPMI-8226
SF-268 = test system: SF-268
SF-295 = test system: SF-295
SF-539 = test system: SF-539
SK-MEL-28 = test system: SK-MEL-28
SK-MEL-5 = test system: SK-MEL-5
SK-OV-3 = test system: SK-OV-3
SN12C = test system: SN12C
SNB-19 = test system: SNB-19
SNB-75 = test system: SNB-75
SNB-78 = test system: SNB-78
SW-620 = test system: SW-620
TK-10 = test system: TK-10
U-251 = test system: U-251
UACC-257 = test system: UACC-257
UACC-62 = test system: UACC-62
UO-31 = test system: UO-31
LOX IMVI = test system: LOX IMVI
RXF 393 = test system: RXF 393
SK-MEL-2 = test system: SK-MEL-2
SR = test system: SR

In the case of `Cc1cccc(C)c1NC(=O)CCc1n[nH]c(=S)o1`, the GI50 (786-0) is reported as 71.9 µM (inactive), the GI50 (A498) is reported as > 100 µM (inactive) and the GI50 (A549) is reported as 88.5 µM (inactive). For the same compound, the GI50 (ACHN) was > 100 µM (inactive), the GI50 (CAKI-1) was > 100 µM (inactive) and the GI50 (CCRF-CEM) was > 100 µM (inactive). The GI50 (COLO 205) was 30.8 µM (inactive), the GI50 (DLD-1) was 67.9 µM (inactive) and the GI50 (DMS-114) was 39.1 µM (inactive). The GI50 (DMS-273) was 44.7 µM (inactive), the GI50 (EKVX) was > 100 µM (inactive) and the GI50 (HCC 2998) was > 100 µM (inactive). The GI50 (HCT-116) was 20.4 µM (inactive), the GI50 (HCT-15) was 78.5 µM and the GI50 (HL-60) was > 100 µM (inactive). The GI50 (HOP-18) was > 100 µM (inactive), the GI50 (HOP-62) was > 100 µM (inactive) and the GI50 (HOP-92) was > 100 µM (inactive). The GI50 (HT-29) was > 100 µM (inactive), the GI50 (IGROV-1) was > 100 µM (inactive) and the GI50 (K562) was 36.2 µM (inactive). For the same compound, the GI50 (KM-20L2) was > 100 µM (inactive), the GI50 (KM12) was > 100 µM (inactive) and the GI50 (LXFL 529) was > 100 µM (inactive). The GI50 (M14) was > 100 µM (inactive), the GI50 (M19-MEL) was > 100 µM (inactive) and the GI50 (MOLT-4) was > 100 µM (inactive). For the same compound, the GI50 (Malme-3M) was > 100 µM (inactive), the GI50 (NCI-H226) was > 100 µM (inactive) and the GI50 (NCI-H23) was > 100 µM (inactive). The GI50 (NCI-H460) was > 100 µM (inactive), the GI50 (NCI-H522) was > 100 µM (inactive) and the GI50 (OVCAR-3) was > 100 µM (inactive). The GI50 (OVCAR-4) was > 100 µM (inactive), the GI50 (OVCAR-5) was > 100 µM (inactive) and the GI50 (OVCAR-8) was > 100 µM (inactive). For the same compound, the GI50 (RPMI-8226) was 22.2 µM (inactive), the GI50 (SF-268) was > 100 µM (inactive) and the GI50 (SF-295) was > 100 µM (inactive). The GI50 (SF-539) was > 100 µM (inactive), the GI50 (SK-MEL-28) was > 100 µM (inactive) and the GI50 (SK-MEL-5) was > 100 µM (inactive). For the same compound, the GI50 (SK-OV-3) was > 100 µM (inactive), the GI50 (SN12C) was > 100 µM (inactive) and the GI50 (SNB-19) was > 100 µM (inactive). For the same compound, the GI50 (SNB-75) was > 100 µM (inactive), the GI50 (SNB-78) was > 100 µM (inactive) and the GI50 (SW-620) was 18.1 µM (inactive). For the same compound, the GI50 (TK-10) was > 100 µM (inactive), the GI50 (U-251) was > 100 µM (inactive) and the GI50 (UACC-257) was > 100 µM (inactive). The GI50 (UACC-62) was > 100 µM (inactive) and the GI50 (UO-31) was > 100 µM (inactive).
In the case of `C=CCCCCCCCC(O)C1C[C@H](O)C(CCCCC)O1` (stereo not given in full), the GI50 (786-0) is reported as 17.9 µM (inactive), the GI50 (A498) is reported as 19.8 µM (inactive) and the GI50 (A549) is reported as 19.4 µM (inactive). For the same compound, the GI50 (ACHN) was 16.9 µM (inactive), the GI50 (CAKI-1) was 17.9 µM (inactive) and the GI50 (CCRF-CEM) was 19.3 µM (inactive). For the same compound, the GI50 (COLO 205) was 18.5 µM (inactive), the GI50 (DLD-1) was 17.3 µM (inactive) and the GI50 (DMS-114) was 17.3 µM (inactive). The GI50 (DMS-273) was 18.1 µM (inactive), the GI50 (EKVX) was 19.5 µM (inactive) and the GI50 (HCC 2998) was 17.9 µM (inactive). The GI50 (HCT-116) was 17.6 µM (inactive), the GI50 (HCT-15) was 21.5 µM and the GI50 (HL-60) was 17.5 µM (inactive). For the same compound, the GI50 (HOP-18) was 17.9 µM (inactive), the GI50 (HOP-92) was 15.7 µM (inactive) and the GI50 (HT-29) was 18.6 µM (inactive). The GI50 (IGROV-1) was 20.2 µM (inactive), the GI50 (K562) was 20.7 µM (inactive) and the GI50 (KM12) was 19.5 µM (inactive). For the same compound, the GI50 (LOX IMVI) was 19.6 µM (inactive), the GI50 (LXFL 529) was 15.5 µM (inactive) and the GI50 (M14) was 17.7 µM (inactive). The GI50 (M19-MEL) was 19.1 µM (inactive), the GI50 (MOLT-4) was 17.7 µM (inactive) and the GI50 (Malme-3M) was 17.3 µM (inactive). For the same compound, the GI50 (NCI-H226) was 13.4 µM (inactive), the GI50 (NCI-H23) was 16.9 µM (inactive) and the GI50 (NCI-H460) was 18.9 µM (inactive). For the same compound, the GI50 (NCI-H522) was 17.1 µM (inactive), the GI50 (OVCAR-3) was 17.5 µM (inactive) and the GI50 (OVCAR-8) was 19.9 µM (inactive). For the same compound, the GI50 (RPMI-8226) was 17.1 µM (inactive), the GI50 (RXF 393) was 17.1 µM (inactive) and the GI50 (SF-295) was 17.6 µM (inactive). For the same compound, the GI50 (SF-539) was 15.8 µM (inactive), the GI50 (SK-MEL-28) was 17.9 µM (inactive) and the GI50 (SK-MEL-5) was 18.3 µM (inactive). For the same compound, the GI50 (SK-OV-3) was 20.4 µM (inactive), the GI50 (SN12C) was 19.5 µM (inactive) and the GI50 (SNB-75) was 15.2 µM (inactive). For the same compound, the GI50 (SNB-78) was 20 µM (inactive), the GI50 (SW-620) was 21.1 µM (inactive) and the GI50 (TK-10) was 19 µM (inactive). The GI50 (U-251) was 16 µM (inactive), the GI50 (UACC-257) was > 10 µM (inactive) and the GI50 (UACC-62) was 15 µM (inactive). For the same compound, the GI50 (UO-31) was 17.8 µM (inactive).
With `CC(C)=CCC/C(C)=C/CC/C(C)=C/Cc1c(O)c2ccccc2oc1=O` the GI50 (786-0) was > 100 µM (inactive), the GI50 (A549) was 65.6 µM (inactive) and the GI50 (ACHN) was > 100 µM (inactive). For the same compound, the GI50 (CCRF-CEM) was > 100 µM (inactive), the GI50 (COLO 205) was > 100 µM (inactive) and the GI50 (DLD-1) was > 100 µM (inactive). For the same compound, the GI50 (DMS-114) was 83.6 µM (inactive), the GI50 (DMS-273) was > 100 µM (inactive) and the GI50 (EKVX) was > 100 µM (inactive). For the same compound, the GI50 (HCC 2998) was > 100 µM (inactive), the GI50 (HCT-116) was 89.1 µM (inactive) and the GI50 (HCT-15) was 69 µM. The GI50 (HL-60) was 99.1 µM (inactive), the GI50 (HOP-18) was > 100 µM (inactive) and the GI50 (HOP-62) was > 100 µM (inactive). The GI50 (HOP-92) was > 100 µM (inactive), the GI50 (HT-29) was > 100 µM (inactive) and the GI50 (IGROV-1) was > 100 µM (inactive). The GI50 (K562) was 80.5 µM (inactive), the GI50 (KM-20L2) was > 100 µM (inactive) and the GI50 (KM12) was > 100 µM (inactive). The GI50 (LOX IMVI) was > 100 µM (inactive), the GI50 (LXFL 529) was > 100 µM (inactive) and the GI50 (M14) was > 100 µM (inactive). The GI50 (M19-MEL) was > 100 µM (inactive), the GI50 (MOLT-4) was > 100 µM (inactive) and the GI50 (Malme-3M) was > 100 µM (inactive). The GI50 (NCI-H226) was 47.1 µM (inactive), the GI50 (NCI-H23) was 55.8 µM (inactive) and the GI50 (NCI-H460) was > 100 µM (inactive). For the same compound, the GI50 (NCI-H522) was > 100 µM (inactive), the GI50 (OVCAR-3) was 75.5 µM (inactive) and the GI50 (OVCAR-4) was > 100 µM (inactive). The GI50 (OVCAR-8) was > 100 µM (inactive), the GI50 (RPMI-8226) was 91.6 µM (inactive) and the GI50 (RXF 393) was 99.1 µM (inactive). For the same compound, the GI50 (SF-268) was > 100 µM (inactive), the GI50 (SF-295) was > 100 µM (inactive) and the GI50 (SF-539) was > 100 µM (inactive). The GI50 (SK-MEL-28) was > 100 µM (inactive), the GI50 (SK-MEL-2) was > 100 µM (inactive) and the GI50 (SK-OV-3) was > 100 µM (inactive). The GI50 (SN12C) was > 100 µM (inactive), the GI50 (SNB-19) was > 100 µM (inactive) and the GI50 (SNB-75) was > 100 µM (inactive). For the same compound, the GI50 (SNB-78) was > 100 µM (inactive), the GI50 (SR) was > 100 µM (inactive) and the GI50 (SW-620) was > 100 µM (inactive). For the same compound, the GI50 (TK-10) was > 100 µM (inactive), the GI50 (U-251) was 57.9 µM (inactive) and the GI50 (UACC-257) was 99.8 µM (inactive). For the same compound, the GI50 (UACC-62) was 63.7 µM (inactive) and the GI50 (UO-31) was 48.8 µM (inactive).
